Source: PubChem BioAssay (NCI)
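Briefly, cells in 96-well plates were exposed to five compound concentrations for 48 h, and endpoints were estimated by linear interpolation. The concentration for 50% growth inhibition is given as GI50. Definition used: TGI = concentration required for complete inhibition of growth.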

What was measured:
Experiment in all cases: DTP human tumour cell line panel, 48 h
[1] = system: RXF 393 renal
[2] = system: A498 renal
[3] = system: SK-OV-3 ovarian
[4] = system: SF-295 CNS
[5] = system: SR leukemia
[6] = system: NCI-H522 lung
[7] = system: SNB-75 CNS
[8] = system: RPMI-8226 leukemia
[9] = system: IGROV1 ovarian
[10] = system: MOLT-4 leukemia

SMILES | GI50 [1] | TGI [1] | GI50 [2] | TGI [2] | GI50 [3] | TGI [3] | GI50 [4] | TGI [4] | GI50 [5] | GI50 [6] | TGI [6] | GI50 [7] | GI50 [8] | TGI [8] | GI50 [9] | TGI [9] | GI50 [10] | TGI [5] | TGI [7] | TGI [10]
CC[C@@]1(OC(=O)CN)C(=O)OCc2c1cc1n(c2=O)Cc2cc3cc4c(cc3nc2-1)OCO4 | < 0.01 µM | 0.192 µM | < 0.01 µM | 0.126 µM | < 0.01 µM | 0.0736 µM | < 0.01 µM | < 0.01 µM | < 0.01 µM | < 0.01 µM | 0.246 µM | < 0.01 µM | < 0.0104 µM | 0.582 µM | < 0.0145 µM | 0.815 µM | < 0.01 µM | – | – | –
Cc1cc(Cc2cc(C)c(O)c(C)c2)cc(C)c1O | 6.47 µM | 36.4 µM | 11.9 µM | 35.5 µM | 6.47 µM | 52.4 µM | 3.92 µM | 21.7 µM | 2.65 µM | 3.49 µM | 15.4 µM | 2.59 µM | 3.89 µM | 30.9 µM | 11.3 µM | > 100 µM | 3.82 µM | 20.2 µM | 25.9 µM | 27.8 µM
Cc1cc(N2CCN(C)CC2)nc(NCc2cc(Nc3ccnc4cc(Cl)ccc34)ccc2F)n1 | 1.63 µM | 3.82 µM | 1.52 µM | 4.03 µM | 2.64 µM | 6.27 µM | 1.68 µM | 3.24 µM | 1.94 µM | 1.92 µM | 3.88 µM | 1.69 µM | 2.2 µM | 5.48 µM | 2.04 µM | 7.26 µM | 1.9 µM | 4.89 µM | 5.56 µM | > 100 µM
Cc1ccc(NC(=O)CC/C(CC(=O)C(C)(C)C)=N/NC(=O)C(N)=O)cc1C | – | > 100 µM | – | > 100 µM | – | > 100 µM | – | > 100 µM | – | – | > 100 µM | – | – | > 100 µM | – | > 100 µM | – | > 100 µM | > 100 µM | > 100 µM
COc1ccc2c(c1)[C@]1(C[C@H]1c1ccc3c(/C=C/c4ccc(CN5C[C@@H](C)O[C@@H](C)C5)cc4)n[nH]c3c1)C(=O)N2 | 1.85 µM | 4.4 µM | 2.34 µM | 30.6 µM | 15.1 µM | > 100 µM | 1.79 µM | > 100 µM | 0.269 µM | 6.4 µM | > 100 µM | 1.84 µM | 1.59 µM | > 100 µM | 9.69 µM | > 100 µM | 2.23 µM | 6.61 µM | 13.4 µM | > 100 µM
Cc1onc(-c2c(F)cccc2Cl)c1-c1ncc(-c2ccc(Cl)cc2)o1 | 6.45 µM | 90.7 µM | 5.09 µM | > 100 µM | 9.33 µM | > 100 µM | 8.66 µM | > 100 µM | 2.92 µM | 3.79 µM | > 100 µM | 12.1 µM | 2.77 µM | 44.9 µM | 6.44 µM | > 100 µM | 4.61 µM | 31.3 µM | 77.6 µM | > 100 µM
CC(N=C(N)N)C(=O)O (configuration not stated) | – | > 100 µM | – | > 100 µM | – | > 100 µM | – | > 100 µM | – | – | > 100 µM | – | – | > 100 µM | – | > 100 µM | – | > 100 µM | > 100 µM | > 100 µM
COc1cc2ccccc2c2cc([N+](=O)[O-])oc12 | – | 0.844 µM | – | 0.342 µM | – | > 71.7 µM | – | 15.6 µM | – | – | 1.35 µM | – | – | 14.7 µM | – | 7.19 µM | – | 1.92 µM | 6.9 µM | 3.95 µM
Cc1cc(=O)n(-c2ccccc2)c(=O)o1 | – | > 100 µM | – | > 100 µM | – | > 100 µM | – | > 100 µM | – | – | > 100 µM | – | – | > 100 µM | – | > 100 µM | – | > 100 µM | > 100 µM | > 100 µM
CC1=CCC2(C#N)CCC1C2O (configuration not stated) | – | > 100 µM | – | > 100 µM | – | > 100 µM | – | > 100 µM | – | – | > 100 µM | – | – | > 100 µM | – | > 100 µM | – | > 100 µM | > 100 µM | > 100 µM
CN(Cc1cnc(N)nc1N)c1ccc(C(=O)O)cc1 | > 100 µM | > 100 µM | 4.25 µM | > 100 µM | > 100 µM | > 100 µM | > 100 µM | > 100 µM | > 100 µM | > 100 µM | > 100 µM | > 100 µM | > 100 µM | > 100 µM | > 100 µM | > 100 µM | > 100 µM | > 100 µM | > 100 µM | > 100 µM
